Measurements taken from article PMC3262391 (Clinical pharmacology : advances and applications, 2011).
Like-named read-outs stand apart in the source and are kept apart here.

What was measured:
CYP3A4 [1] = conditions: in vitro studies; cited from earlier work
CYP1A2 [2] = conditions: in vitro studies; cited from earlier work
[3] = Ketoconazole study: two-way pharmacokinetic interaction, plasma pharmacokinetics; format: in vivo, healthy subjects; conditions: for t½: mean (SD)
CYP2E1 = conditions: in vitro studies; cited from earlier work
CYP2D6 = conditions: in vitro studies; cited from earlier work
[4] = excreted in urine; cited from earlier work
CYP2C9 [5] = conditions: in vitro studies; cited from earlier work
CYP2B6 [6] = conditions: in vitro studies; cited from earlier work
[7] = format: in vivo, healthy subjects; conditions: for t½: mean (SD)
CYP3A4 [8] = conditions: in vitro studies; cited from earlier work; remark: listed apart in the source
CYP2C9 [9] = conditions: in vitro studies; cited from earlier work; remark: listed apart in the source
CYP1A2 [10] = conditions: in vitro studies; cited from earlier work; remark: listed apart in the source
CYP2A6 = conditions: in vitro studies; cited from earlier work
[11] = Simvastatin study: two-way pharmacokinetic interaction, plasma pharmacokinetics; conditions: for decrease of Cmax by saxagliptin / increase of AUCτ by saxagliptin: saxagliptin 10 mg + simvastatin 40 mg relative to simvastatin alone
CYP2B6 [12] = conditions: in vitro studies; cited from earlier work; remark: listed apart in the source
CYP2C19 = conditions: in vitro studies; cited from earlier work
DPP-4 = conditions: cited from earlier work
[13] = Diltiazem extended-release study: adverse events; format: in vivo, healthy subjects; conditions: for first-degree atrioventricular block, subjects: by treatment: diltiazem extended-release 360 mg alone, saxagliptin 10 mg + diltiazem extended-release 360 mg, saxagliptin 10 mg alone
[14] = Ketoconazole study: adverse events; format: in vivo, healthy subjects
[15] = Simvastatin study: adverse events; format: in vivo, healthy subjects
P-glycoprotein = conditions: in vitro data; no reference given; cited from earlier work
[16] = compared with saxagliptin alone
[17] = saxagliptin 100 mg + ketoconazole 200 mg every 12 hours (day 9), geometric mean (CV%), n = 15
[18] = saxagliptin 100 mg administered alone (day 1), geometric mean (CV%), n = 15
[19] = compared with saxagliptin 10 mg alone
[20] = saxagliptin 10 mg + diltiazem extended-release 360 mg (day 10), geometric mean (CV%), n = 12
[21] = saxagliptin 10 mg administered alone (day 1), geometric mean (CV%), n = 12
[22] = saxagliptin 10 mg + simvastatin 40 mg relative to saxagliptin alone
[23] = saxagliptin 100 mg + ketoconazole versus ketoconazole alone

For N#C[C@@H]1C[C@@H]2C[C@@H]2N1C(=O)[C@@H](N)C12CC3CC(O)(CC(O)(C3)C1)C2 [5-Hydroxy saxagliptin, 5-hydroxy saxagliptin], the “induction of CYP3A4” value (CYP3A4 [1]) is listed as “do not induce”, the “induction of CYP1A2” value (CYP1A2 [2]) is listed as “do not induce” and the “decrease of AUC0-t by ketoconazole” value [3, 16] is listed as 91%. The “decrease of AUC∞ by ketoconazole” value [3, 16] was 88%, the “decrease of Cmax by ketoconazole” value [3, 16] was 95% and the Cmax ([3]; plasma, SAXA + KETO, saxagliptin 100 mg + ketoconazole 200 mg every 12 hours (day 9), geometric mean (CV%), n = 15) was 53 (49) ng/mL. The Cmax ([3]; plasma, SAXA, saxagliptin 100 mg administered alone (day 1), geometric mean (CV%), n = 15) was 999 (24) ng/mL, the AUC0-t [3, 17] was 473 (59) ng · h/mL and the “AUC∞” value [3, 17] was 627 (43) ng · h/mL. For the same compound, the t½ ([3]; saxagliptin 100 mg + ketoconazole 200 mg every 12 hours (day 9)) was 6.33 (2.49) h, the Tmax ([3]; saxagliptin 100 mg + ketoconazole 200 mg every 12 hours (day 9), median (minimum, maximum)) was 2.00 (0.75, 4.00) h and the AUC0-t [3, 18] was 5294 (19) ng · h/mL. The “AUC∞” value [3, 18] was 5381 (19) ng · h/mL, the t½ ([3]; saxagliptin 100 mg administered alone (day 1)) was 3.68 (0.53) h and the Tmax ([3]; saxagliptin 100 mg administered alone (day 1), median (minimum, maximum)) was 1.50 (1.00, 2.00) h. For the same compound, the “inhibition of CYP2E1” value (CYP2E1) was “neither saxagliptin nor 5-hydroxy saxagliptin inhibits”, the “inhibition of CYP2D6” value (CYP2D6) was “neither saxagliptin nor 5-hydroxy saxagliptin inhibits” and the renal clearance [4] was ~120 mL/min. The “inhibition of CYP2C9” value (CYP2C9 [5]) was “neither saxagliptin nor 5-hydroxy saxagliptin inhibits”, the “inhibition of CYP2B6” value (CYP2B6 [6]) was “neither saxagliptin nor 5-hydroxy saxagliptin inhibits” and the “decrease of AUC0-t by diltiazem extended-release” value [7, 19] was 36%. For the same compound, the “decrease of AUC∞ by diltiazem extended-release” value [7, 19] was 34%, the “decrease of Cmax by diltiazem extended-release” value [7, 19] was 43% and the Cmax ([7]; plasma, SAXA + DILT XR, saxagliptin 10 mg + diltiazem extended-release 360 mg (day 10), geometric mean (CV%), n = 12) was 63 (26) ng/mL. The Cmax ([7]; plasma, SAXA, saxagliptin 10 mg administered alone (day 1), geometric mean (CV%), n = 12) was 111 (20) ng/mL, the AUC0-t [7, 20] was 338 (24) ng · h/mL and the “AUC∞” value [7, 20] was 353 (23) ng · h/mL. For the same compound, the t½ ([7]; saxagliptin 10 mg + diltiazem extended-release 360 mg (day 10)) was 3.30 (0.53) h, the Tmax ([7]; saxagliptin 10 mg + diltiazem extended-release 360 mg (day 10), median (minimum, maximum)) was 1.50 (1.00, 2.50) h and the AUC0-t [7, 21] was 526 (25) ng · h/mL. The “AUC∞” value [7, 21] was 538 (25) ng · h/mL, the t½ ([7]; saxagliptin 10 mg administered alone (day 1)) was 3.04 (0.38) h and the Tmax ([7]; saxagliptin 10 mg administered alone (day 1), median (minimum, maximum)) was 1.50 (1.00, 2.00) h. The “inhibition of CYP3A4” value (CYP3A4 [8]) was “neither saxagliptin nor 5-hydroxy saxagliptin inhibits”, the “induction of CYP2C9” value (CYP2C9 [9]) was “do not induce” and the “inhibition of CYP1A2” value (CYP1A2 [10]) was “neither saxagliptin nor 5-hydroxy saxagliptin inhibits”. For the same compound, the “inhibition of CYP2A6” value (CYP2A6) was “neither saxagliptin nor 5-hydroxy saxagliptin inhibits”, the Cmax ([11]; plasma, SAXA + SIMVA, saxagliptin 10 mg + simvastatin 40 mg (day 12), geometric mean (CV%), n = 23) was 103 (29) ng/mL and the Cmax ([11]; plasma, SAXA, saxagliptin 10 mg administered alone (day 4), geometric mean (CV%), n = 23) was 96 (33) ng/mL. For the same compound, the AUCτ ([11]; plasma, saxagliptin 10 mg + simvastatin 40 mg (day 12), geometric mean (CV%), n = 23) was 538 (24) ng · h/mL, the AUCτ ([11]; plasma, saxagliptin 10 mg administered alone (day 4), geometric mean (CV%), n = 23) was 529 (26) ng · h/mL and the Tmax ([11]; saxagliptin 10 mg + simvastatin 40 mg (day 12), median (minimum, maximum)) was 1.50 (1.00, 2.00) h. The “increase of AUCτ by simvastatin” value [11, 22] was 2%, the “increase of Cmax by simvastatin” value [11, 22] was 8% and the Tmax ([11]; saxagliptin 10 mg administered alone (day 4), median (minimum, maximum)) was 1.50 (1.00, 3.00) h. The “induction of CYP2B6” value (CYP2B6 [12]) was “do not induce”, the “inhibition of CYP2C19” value (CYP2C19) was “neither saxagliptin nor 5-hydroxy saxagliptin inhibits” and the “DPP-4 inhibitive potency relative to the parent saxagliptin” value (DPP-4) was “one-half”.

For COc1ccc([C@@H]2Sc3ccccc3N(CCN(C)C)C(=O)[C@@H]2OC(C)=O)cc1 [Diltiazem, diltiazem, reference compound], the AUC ([7]; human, plasma, oral, 360 mg) was 3870 ng·h/mL, the Cmax ([7]; human, plasma, oral, 360 mg) was 262 ng/mL and the Tmax ([7]; human, plasma, oral, 360 mg) was 13 h. For the same compound, the “first-degree atrioventricular block, subjects” value [13] was 42.9%, the “subjects with first-degree atrioventricular block who discontinued the trial” value ([13]; diltiazem extended-release 360 mg alone, on day 5) was “two of these subjects” and the “adverse events reported (of thirteen in the study)” value ([13]; diltiazem extended-release 360 mg monotherapy) was 12.

With CC(=O)N1CCN(c2ccc(OCC3COC(Cn4ccnc4)(c4ccc(Cl)cc4Cl)O3)cc2)CC1 (stereo not drawn) [Ketoconazole, ketoconazole] the “headache, subjects” value ([14]; ketoconazole alone treatment group, 10/16) was 62.5%, the “subjects discontinued due to adverse event of increased transaminases” value ([14]; mild, beginning on day 8, lasting 11 days, following ketoconazole alone) was “One subject” and the AUC ([3]; human, plasma, 200 mg) was 42300 ng·h/mL. For the same compound, the Cmax ([3]; human, plasma, 200 mg) was 7040 ng/mL, the Tmax ([3]; human, plasma, 200 mg) was 2 h and the “decrease of AUCτ by saxagliptin” value [3, 23] was 13%. The “decrease of Cmax by saxagliptin” value [3, 23] was 16%.

In the case of N#C[C@@H]1C[C@@H]2C[C@@H]2N1C(=O)[C@@H](N)C12CC3CC(CC(O)(C3)C1)C2 [Saxagliptin, saxagliptin, reference compound], the “serious adverse events or deaths” value ([15]; after coadministration of saxagliptin and simvastatin) is given as “no serious adverse events or deaths”, the “induction of CYP3A4” value (CYP3A4 [1]) is given as “do not induce” and the “serious adverse events or deaths” value ([14]; after coadministration of saxagliptin and ketoconazole) is given as “no serious adverse events or deaths”. The “increase of AUC0-t by ketoconazole” value [3, 16] was 148%, the “increase of AUC∞ by ketoconazole” value [3, 16] was 145% and the “increase of Cmax by ketoconazole” value [3, 16] was 62%. It also gave an AUC0-t ([3]; human, plasma, 100 mg) of 1920 ng·h/mL, an AUC(0-inf) ([3]; human, plasma, 100 mg) of 1970 ng·h/mL and a Cmax ([3]; human, plasma, 100 mg) of 546 ng/mL. For the same compound, the Tmax ([3]; human, plasma, 100 mg) was 1 h, the half-life ([3]; human, plasma, 100 mg) was 2.37 h and the “increase of mean t½ by ketoconazole” value ([3]; versus saxagliptin alone) was 1.1 h. The “inhibition of CYP2D6” value (CYP2D6) was “neither saxagliptin nor 5-hydroxy saxagliptin inhibits”, the renal clearance [4] was “approximately 230 mL/min” and the “inhibition of CYP2C9” value (CYP2C9 [5]) was “neither saxagliptin nor 5-hydroxy saxagliptin inhibits”. The “increase of AUC0-t by diltiazem extended-release” value [7, 19] was 113%, the “increase of AUC∞ by diltiazem extended-release” value [7, 19] was 109% and the “increase of Cmax by diltiazem extended-release” value [7, 19] was 63%. It also gave an AUC0-t ([7]; human, plasma, oral, 10 mg) of 152 ng·h/mL, an AUC(0-inf) ([7]; human, plasma, oral, 10 mg) of 158 ng·h/mL and a Cmax ([7]; human, plasma, oral, 10 mg) of 53 ng/mL. The Tmax ([7]; human, plasma, oral, 10 mg) was 0.5 h, the half-life ([7]; human, plasma, oral, 10 mg) was 2.38 h and the “increase of mean t½ by diltiazem extended-release” value ([7]; versus saxagliptin alone) was 0.92 h. The “inhibition of CYP3A4” value (CYP3A4 [8]) was “neither saxagliptin nor 5-hydroxy saxagliptin inhibits”, the “induction of CYP2C9” value (CYP2C9 [9]) was “do not induce” and the AUC ([11]; human, in vivo, 10 mg) was 153 ng·h/mL. For the same compound, the Cmax ([11]; human, in vivo, 10 mg) was 44 ng/mL, the Tmax ([11]; human, in vivo, 10 mg) was 1 h and the “increase of AUCτ by simvastatin” value [11, 22] was 12%. For the same compound, the “inhibition of CYP2C19” value (CYP2C19) was “neither saxagliptin nor 5-hydroxy saxagliptin inhibits”, the “substrate for the efflux transporter P-glycoprotein” value (P-glycoprotein) was “weak substrate” and the “serious adverse events or deaths” value ([13]; after coadministration of saxagliptin and diltiazem extended-release) was “no serious adverse events or deaths”. The “first-degree atrioventricular block, subjects” value [13] was “in no subjects”.

For CCC(C)(C)C(=O)O[C@H]1C[C@@H](C)C=C2C=C[C@H](C)[C@H](CC[C@@H](O)C[C@@H](O)CC(=O)O)[C@H]21 [Simvastatin acid, simvastatin acid], the AUC ([11]; human, in vivo, 40 mg) was 17.9 ng·h/mL, the “decrease of Cmax by saxagliptin” value [11] was “unchanged” and the “increase of AUCτ by saxagliptin” value [11] was 16%. For the same compound, the Tmax ([11]; simvastatin 40 mg administered alone (day 8), median (minimum, maximum)) was 4.00 (2.00, 8.00) h.

In the case of CCC(C)(C)C(=O)O[C@H]1C[C@@H](C)C=C2C=C[C@H](C)[C@H](CC[C@@H]3C[C@@H](O)CC(=O)O3)[C@H]21 [Simvastatin, simvastatin, reference compound], the “subjects discontinued due to mild upper respiratory tract infection” value ([15]; simvastatin 40-mg group, diagnosed on day 5, deemed possibly related to study drug) is reported as “One subject”, the “decrease of Cmax by saxagliptin” value [11] is reported as 12% and the “increase of AUCτ by saxagliptin” value [11] is reported as 4%.
